Assay results taken from article PMC5688144, “Assay interference and off-target liabilities of reported histone acetyltransferase inhibitors” (Nature Communications, 2017).

Columns and labels:
[1] = Fluorescence quenching counter-screen; assay type: physicochemical; details: 10 μM fluorophore; 32 nM-100 μM compound
Experimental: Selected test compounds were assessed for fluorescence quenching using adaptions of previously published procedures[9],[24]. Briefly, test compounds and individual fluorophore standards were incubated together. The fluorescence intensity of these mixtures was compared to the fluorescence intensity of the same fluorophore standards minus test compounds. Each microplate contained positive control columns (DMSO plus fixed concentration of a single fluorophore), negative control columns (DMSO), and experimental wells (test compounds plus fixed concentration of a single fluorophore). […] Final concentration of DMSO was constant at 2.0% (v/v). […] All measurements were performed in ALARM NMR buffer (25 mM sodium phosphate, pH 7.0) at 25 °C. Aliquots of 20 μL buffer were dispensed into microplate wells via ThermoFisher Multidrop dispenser. Microplates were shaken for 1 min on a plate shaker, centrifuged briefly for 1 min at 1000×g, then allowed to incubate at RT for 10 min before measuring fluorescence intensity on a SpectraMax M3 plate reader under reduced lighting. Instrument settings for each fluorophore were unchanged from the aforementioned autofluorescence studies.

[2] = Autofluorescence counter-screen; assay type: physicochemical; details: autofluorescence at eight fluorophore settings; 32 nM-100 μM compound
Experimental: Selected test compounds were assessed for autofluorescence using an adaption of published procedures. […] Final concentration of DMSO was constant at 1.0% (v/v). Compounds and fluorophore standards were transferred as 10 mM DMSO stock solutions to 384-well black polystyrene microplates via Echo 550 dispenser. The plate arrangement was purposefully designed to minimize optical crosstalk by fluorophore standards. All measurements were performed in ALARM NMR buffer (25 mM sodium phosphate, pH 7.0) at 25 °C. Aliquots of 20 μL buffer were dispensed into microplate wells via ThermoFisher Multidrop dispenser. Compounds were shaken for 1 min on a plate shaker, centrifuged briefly for 1 min at 1000×g, then allowed to incubate at RT in buffer for 10 min before measuring fluorescence intensity on a SpectraMax M3 plate reader under reduced lighting. […] Bandwidth filters were set to default mode. Fluorescence intensity was measured for each test compound using each of the eight fluorophore standard settings. Fluorophores present on each plate were then used to construct normalized fluorescence dose-responses (“fluorophore-equivalent concentrations”, FEC). Fluorescence intensity for each test compound was converted to the appropriate FEC.

AmpC β-lactamase = target: T1, AmpC β-lactamase (Escherichia coli, UniProt P00811); experiment: biochemical; design: species or system E. coli; details: for AmpC aggregation counter-screen / AmpC counter-screen result: 10 μM compound; for AmpC aggregation counter-screen: ± 0.01% Triton X-100; for AmpC counter-screen result: detergent-sensitive modulation; for inhibition at 10 µM: read-out: % Inhibition, AmpC
T1 construct: Recombinant E. coli AmpC (amino acids 20–377); purchased MyBioSource.com
Experimental: Selected compounds were assessed for aggregation using a modified AmpC β-lactamase counter-screen[24],[32],[64]. Recombinant E. coli AmpC (amino acids 20–377) was obtained from MyBioSource.com. Testing was performed in ALARM NMR buffer (25 mM sodium phosphate, pH 7.0) in flat-bottom UV-transparent 96-well microplates in 150 μL reaction volumes. Compounds were tested in triplicate at 10 μM final concentrations in either the presence or absence of freshly-prepared 0.01% Triton X-100 (v/v). Final concentration of DMSO was 2.0% (v/v). Compounds were incubated with ~5 nM AmpC in 147 μL reaction buffer for 5 min at RT, followed by the addition of 3 μL of nitrocefin substrate (100 μM final concentration). Reaction solutions were gently mixed by pipetting up and down three times using a multichannel pipette. […] Percent activity was normalized to DMSO-only controls. Fluconazole and lidocaine were included as negative aggregation control compounds. Rottlerin was included as a positive aggregation control compound. Aggregators were defined as compounds with significant detergent-dependent changes in AmpC activity (t-test, adjusted P-value <0.05; mean differences greater than 30%). Activators were defined as compounds that increased AmpC enzymatic activity.

Absorbance spectra = assay type: physicochemical; details: for Absorption max (nm) / Absorbance counter-screen: 25 mM sodium phosphate, pH 7.0; for Absorbance counter-screen: 300-750 nm; for Molar absorptivity: at absorption max
Experimental: Selected test compounds were assessed for absorption between 300 and 750 nm. Most compound absorption spectra were obtained at 100, 50, and 10 μM final compound concentrations in ALARM NMR buffer (25 mM sodium phosphate, pH 7.0). Final concentration of DMSO was constant at 2.0% (v/v). Compounds were allowed to incubate at RT in buffer for 10 min in UV-transparent polystyrene 384-well plates. Absorbance spectra were then obtained on a SpectraMax M3 or BMG Labtech CLARIOstar microplate reader at 25 °C. Significant absorbance was defined as molar absorptivity constants greater than 2000 M^−1 cm^−1 at wavelengths greater than 300 nm.

T1 sequence (P00811 20-377): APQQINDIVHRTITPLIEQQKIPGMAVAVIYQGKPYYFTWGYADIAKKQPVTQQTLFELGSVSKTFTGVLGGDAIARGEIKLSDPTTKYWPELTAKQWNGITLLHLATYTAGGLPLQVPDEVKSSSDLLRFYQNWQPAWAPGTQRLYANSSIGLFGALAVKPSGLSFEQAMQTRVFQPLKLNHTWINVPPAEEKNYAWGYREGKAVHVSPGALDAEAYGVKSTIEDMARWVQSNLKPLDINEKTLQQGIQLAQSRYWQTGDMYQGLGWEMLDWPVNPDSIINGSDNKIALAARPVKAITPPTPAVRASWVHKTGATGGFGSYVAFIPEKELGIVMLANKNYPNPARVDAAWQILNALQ

Molecule | Quenching counter-screen [1] | Fluorescence counter-screen [2] | AmpC aggregation counter-screen (AmpC β-lactamase) | Absorption max (nm) (Absorbance spectra) | Absorbance counter-screen (Absorbance spectra) | AmpC counter-screen result (AmpC β-lactamase) | Molar absorptivity (Absorbance spectra) [M⁻¹ cm⁻¹] | inhibition at 10 µM (AmpC β-lactamase) [%]
CCCCCCCCCCCCCCCc1cccc(O)c1C(=O)O [Compound 14, Anacardic acid] | Flagged (Significant fluorescence quenching was defined as signal reduction greater than 25% of the corresponding fluorophore signal at any test compound concentration) | Negative | Detergent-sensitive (Aggregators were defined as compounds with significant detergent-dependent changes in AmpC activity (t-test, adjusted P-value <0.05; mean differences greater than 30%)) | 305 nm | Negative | – | – | –
Cc1cc(O)cc(C)c1C=C1C(=O)N(Cc2ccccc2)C(=O)N(Cc2ccccc2)C1=O [Compound 4, EML425] | Flagged (Significant fluorescence quenching was defined as signal reduction greater than 25% of the corresponding fluorophore signal at any test compound concentration) | Negative | Detergent-sensitive (Aggregators were defined as compounds with significant detergent-dependent changes in AmpC activity (t-test, adjusted P-value <0.05; mean differences greater than 30%)) | 425 nm | Flagged (Significant absorbance was defined as molar absorptivity constants greater than 2000 M^−1 cm^−1 at wavelengths greater than 300 nm) | likely aggregators | 2700 | –
COc1ccc(S(=O)(=O)ON=C2C=C(C)C(=O)C(C)=C2)cc1 [Compound 5, L002] | Negative | Negative | Detergent-insensitive | 290 nm | Negative | – | – | –
Cl.Cl.O=C(O)Cn1nnc(-c2ccc(CN(CCCCOc3ccc(CN4CCCC4)cc3)CCc3ccccc3)cc2)n1 [Compound 20, TH1834] | Flagged (Significant fluorescence quenching was defined as signal reduction greater than 25% of the corresponding fluorophore signal at any test compound concentration) | Negative | Detergent-sensitive (activator) | Nominal | Negative | likely aggregators | – | -63 ± 26
O=C(O[C@@H]1Cc2c(O)cc(O)cc2O[C@@H]1c1cc(O)c(O)c(O)c1)c1cc(O)c(O)c(O)c1 [Compound 10, (-)-Epigallocatechin gallate] | Flagged (Significant fluorescence quenching was defined as signal reduction greater than 25% of the corresponding fluorophore signal at any test compound concentration) | Negative | Detergent-insensitive | 290 nm | Negative | – | – | –
Plumbagin [Compound 8] | Negative | Negative | Detergent-insensitive | 420 nm | Flagged (Significant absorbance was defined as molar absorptivity constants greater than 2000 M^−1 cm^−1 at wavelengths greater than 300 nm) | – | 3200 | –
CC1=NN(c2ccc(C(=O)O)cc2)C(=O)/C1=C/c1ccc(-c2cc(C)c(C)cc2[N+](=O)[O-])o1 [Compound 1, C646] | Flagged (Significant fluorescence quenching was defined as signal reduction greater than 25% of the corresponding fluorophore signal at any test compound concentration) | Negative | Detergent-sensitive (activator) | 405 nm | Flagged (Significant absorbance was defined as molar absorptivity constants greater than 2000 M^−1 cm^−1 at wavelengths greater than 300 nm) | likely aggregators | 18000 | -58 ± 56
COc1cc(/C=C/C(=O)CC(=O)/C=C/c2ccc(O)c(OC)c2)ccc1O [Compound 11, Curcumin] | Flagged (Significant fluorescence quenching was defined as signal reduction greater than 25% of the corresponding fluorophore signal at any test compound concentration) | Negative | Detergent-sensitive (Aggregators were defined as compounds with significant detergent-dependent changes in AmpC activity (t-test, adjusted P-value <0.05; mean differences greater than 30%)) | 425 nm | Flagged (Significant absorbance was defined as molar absorptivity constants greater than 2000 M^−1 cm^−1 at wavelengths greater than 300 nm) | – | 20000 | –
Clc1ccc(-c2csc(NN=C3CCCC3)n2)cc1 [Compound 7, CPTH2] | Flagged (Significant fluorescence quenching was defined as signal reduction greater than 25% of the corresponding fluorophore signal at any test compound concentration) | Negative | Detergent-sensitive (Aggregators were defined as compounds with significant detergent-dependent changes in AmpC activity (t-test, adjusted P-value <0.05; mean differences greater than 30%)) | 285 nm | Negative | likely aggregators | – | –
C=C1C(=O)O[C@H](CCC)[C@H]1C(=O)O [Compound 6, MB-3] | Flagged (Significant fluorescence quenching was defined as signal reduction greater than 25% of the corresponding fluorophore signal at any test compound concentration) | Negative | Detergent-insensitive | Nominal | Negative | – | – | –
Cc1cc2c(C(C)C)c(O)c(O)c(C=O)c2c(O)c1-c1c(C)cc2c(C(C)C)c(O)c(O)c(C=O)c2c1O [Compound 16, Gossypol] | Flagged (Significant fluorescence quenching was defined as signal reduction greater than 25% of the corresponding fluorophore signal at any test compound concentration) | Negative | Detergent-sensitive (Aggregators were defined as compounds with significant detergent-dependent changes in AmpC activity (t-test, adjusted P-value <0.05; mean differences greater than 30%)) | 385 nm | Flagged (Significant absorbance was defined as molar absorptivity constants greater than 2000 M^−1 cm^−1 at wavelengths greater than 300 nm) | – | 22000 | –
CCCC1(c2ccccc2)NC(=O)N(CC(=O)N(C)Cc2c(F)cccc2Cl)C1=O (centres unmarked) [Compound 21, N-[(2-chloro-6-fluorophenyl)methyl]-2-(2,5-dioxo-4-phenyl-4-propylimidazolidin-1-yl)-N-methylacetamide] | Flagged (Significant fluorescence quenching was defined as signal reduction greater than 25% of the corresponding fluorophore signal at any test compound concentration) | Negative | Detergent-insensitive | Nominal | Negative | – | – | –
